Assay results: patent publication US8927717B1, “Thiochromeno[2,3-c]quinolin-12-one derivatives, preparation method and application thereof” (National Defense Medical Center, priority 2014, dated 2015)

How the values were obtained:
Type in all cases: cell-based
LOX IMVI = conditions: LOX IMVI
UACC-62 = conditions: UACC-62
K-562 = conditions: K-562
CCRF-CEM = conditions: CCRF-CEM
OVCAR-8 = conditions: OVCAR-8
U251 = conditions: U251
SK-MEL-28 = conditions: SK-MEL-28
M14 = conditions: M14
SF-268 = conditions: SF-268
HS 578T = conditions: HS 578T
786-0 = conditions: 786-0
RXF 393 = conditions: RXF 393
SK-MEL-5 = conditions: SK-MEL-5
SF-295 = conditions: SF-295
NCI-H522 = conditions: NCI-H522
SW-620 = conditions: SW-620
TK-10 = conditions: TK-10
KM12 = assay: cells; conditions: KM12
MALME-3M = conditions: MALME-3M
60 cancer cell lines = assay: NCI 60-cell screen, SRB, whole panel (mean, delta, range)
OVCAR-5 = conditions: OVCAR-5
PC-3 = conditions: PC-3
T-47D = conditions: T-47D
SNB-19 = conditions: SNB-19
HT29 = conditions: HT29
MDA-MB-231/ATCC = conditions: MDA-MB-231/ATCC
NCI/ADR-RES = conditions: NCI/ADR-RES
DU-145 = conditions: DU-145
SN12C = conditions: SN12C
SNB-75 = conditions: SNB-75
NCI-H23 = conditions: NCI-H23
HL-60(TB) = conditions: HL-60(TB); 10^−5 molar
NCI-H460 = conditions: NCI-H460
MDA-MB-486 = conditions: MDA-MB-486
ACHN = conditions: ACHN
RPMI-8226 = conditions: RPMI-8226
COLO 205 = conditions: COLO 205
UO-31 = conditions: UO-31
MCF7 = conditions: MCF7
[1] = Homo sapiens, five dose, read-out: LC50 (the source's name)

Molecule `O=c1c2cc(Cl)ccc2sc2c(NCCCNCCO)nc3ccccc3c12` [Compound N19, 10-Chloro-6-((3-((2-hydroxyethyl)amino)propyl)amino)-12H-thiochromeno[2,3-c]quinolin-12-one] has a GI50 (LOX IMVI; Homo sapiens, five dose) of 1800 nM, a Growth percent (LOX IMVI; 10^−5 molar) of −82.79% and a TGI (LOX IMVI; five dose) of 3800 nM. It also gave a GI50 (UACC-62; Homo sapiens, five dose) of 1810 nM, a CC50 (UACC-62; [1]) of 6390 nM and a Growth percent (UACC-62; 10^−5 molar) of −77.63%. For the same molecule, the TGI (UACC-62; five dose) was 3400 nM, the GI50 (K-562; Homo sapiens, K562, five dose) was 1730 nM and the CC50 (K-562; Homo sapiens, K562, five dose, read-out: LC50 (the source's name)) was > 100000 nM. The Growth percent (K-562; 10^−5 molar) was −66.94%, the Growth percent (CCRF-CEM; 10^−5 molar) was −54.78% and the TGI (CCRF-CEM; five dose) was 3800 nM. For the same molecule, the GI50 (CCRF-CEM; Homo sapiens, five dose) was 1830 nM, the GI50 (OVCAR-8; Homo sapiens, five dose) was 1750 nM and the Growth percent (OVCAR-8; 10^−5 molar) was 9.89%. For the same molecule, the TGI (OVCAR-8; five dose) was 3320 nM, the GI50 (U251; Homo sapiens, U-251, five dose) was 1730 nM and the Growth percent (U251; 10^−5 molar) was −66.76%. For the same molecule, the TGI (U251; five dose) was 3220 nM, the GI50 (SK-MEL-28; Homo sapiens, five dose) was 1890 nM and the Growth percent (SK-MEL-28; 10^−5 molar) was −94.33%. For the same molecule, the TGI (SK-MEL-28; five dose) was 3560 nM, the GI50 (M14; Homo sapiens, five dose) was 1830 nM and the Growth percent (M14; 10^−5 molar) was 6.12%. The TGI (M14; five dose) was 3530 nM, the GI50 (SF-268; Homo sapiens, five dose) was 1670 nM and the Growth percent (SF-268; 10^−5 molar) was 17.28%. For the same molecule, the TGI (SF-268; five dose) was 3350 nM, the Growth percent (HS 578T; 10^−5 molar) was 64.69% and the TGI (HS 578T; five dose) was 3530 nM. The GI50 (HS 578T; Homo sapiens, five dose) was 1290 nM, the CC50 (HS 578T; [1]) was 9640 nM and the Growth percent (786-0; 10^−5 molar) was −17.60%. It also gave a TGI (786-0; five dose) of 3370 nM, a GI50 (786-0; Homo sapiens, five dose) of 1720 nM and a GI50 (RXF 393; Homo sapiens, five dose) of 1640 nM. It also gave a Growth percent (RXF 393; 10^−5 molar) of 43.67%, a TGI (RXF 393; five dose) of 3200 nM and a GI50 (SK-MEL-5; Homo sapiens, five dose) of 1600 nM. The Growth percent (SK-MEL-5; 10^−5 molar) was 62.02%, the TGI (SK-MEL-5; five dose) was 3000 nM and the GI50 (SF-295; Homo sapiens, five dose) was 1730 nM. The Growth percent (SF-295; 10^−5 molar) was −93.00%, the TGI (SF-295; five dose) was 3330 nM and the GI50 (NCI-H522; Homo sapiens, five dose) was 1850 nM. The Growth percent (NCI-H522; 10^−5 molar) was −59.68%, the TGI (NCI-H522; five dose) was 3560 nM and the GI50 (SW-620; Homo sapiens, five dose) was 1630 nM. It also gave a Growth percent (SW-620; 10^−5 molar) of −81.48%, a TGI (SW-620; five dose) of 3300 nM and a GI50 (TK-10; Homo sapiens, five dose) of 2090 nM. It also gave a CC50 (TK-10; [1]) of 6690 nM, a Growth percent (TK-10; 10^−5 molar) of −92.61% and a TGI (TK-10; five dose) of 3740 nM. It also gave a GI50 (KM12; Homo sapiens, five dose) of 1670 nM, a Growth percent (KM12; 10^−5 molar) of −83.29% and a TGI (KM12; five dose) of 3310 nM. It also gave a GI50 (MALME-3M; Homo sapiens, five dose) of 2150 nM, a Growth percent (MALME-3M; 10^−5 molar) of −34.30% and a TGI (MALME-3M; five dose) of 4330 nM. The GI50 (60 cancer cell lines; 60 cell, mean over panel, five dose) was 1660 nM, the CC50 (60 cancer cell lines; 60 cell, mean over panel, five dose, read-out: LC50, Mean) was 9550 nM and the “Growth percent, Delta” value (60 cancer cell lines; delta over panel, 10^−5 molar) was 75.63%. The “Growth percent, Mean” value (60 cancer cell lines; mean over panel, 10^−5 molar) was −21.33%, the “TGI, Mean” value (60 cancer cell lines; mean over panel, five dose) was 3390 nM and the “Growth percent, Range” value (60 cancer cell lines; range over panel, 10^−5 molar) was 195.44%. It also gave a GI50 (OVCAR-5; Homo sapiens, five dose) of 1630 nM, a CC50 (OVCAR-5; [1]) of 7530 nM and a Growth percent (OVCAR-5; 10^−5 molar) of −65.05%. For the same molecule, the TGI (OVCAR-5; five dose) was 3500 nM, the GI50 (PC-3; Homo sapiens, five dose) was 1510 nM and the CC50 (PC-3; [1]) was 5660 nM. For the same molecule, the Growth percent (PC-3; 10^−5 molar) was −26.98%, the TGI (PC-3; five dose) was 2920 nM and the GI50 (T-47D; Homo sapiens, T47D, five dose) was 1500 nM. For the same molecule, the Growth percent (T-47D; 10^−5 molar) was 16.26%, the TGI (T-47D; five dose) was 3430 nM and the GI50 (SNB-19; Homo sapiens, five dose) was 1640 nM. For the same molecule, the Growth percent (SNB-19; 10^−5 molar) was 46.07%, the TGI (SNB-19; five dose) was 3260 nM and the Growth percent (HT29; 10^−5 molar) was −83.53%. The TGI (HT29; five dose) was 4000 nM, the GI50 (HT29; Homo sapiens, HT-29, five dose) was 2050 nM and the GI50 (MDA-MB-231/ATCC; Homo sapiens, five dose) was 1360 nM. The CC50 (MDA-MB-231/ATCC; [1]) was 6020 nM, the Growth percent (MDA-MB-231/ATCC; 10^−5 molar) was −66.53% and the TGI (MDA-MB-231/ATCC; five dose) was 2860 nM. The GI50 (NCI/ADR-RES; Homo sapiens, five dose) was 1820 nM, the Growth percent (NCI/ADR-RES; 10^−5 molar) was 26.35% and the TGI (NCI/ADR-RES; five dose) was 3630 nM. For the same molecule, the Growth percent (DU-145; 10^−5 molar) was −71.03%, the TGI (DU-145; five dose) was 3310 nM and the GI50 (DU-145; Homo sapiens, five dose) was 1760 nM. The CC50 (DU-145; [1]) was 6250 nM, the GI50 (SN12C; Homo sapiens, five dose) was 1700 nM and the CC50 (SN12C; [1]) was 6800 nM. It also gave a Growth percent (SN12C; 10^−5 molar) of 78.75%, a TGI (SN12C; five dose) of 3390 nM and a GI50 (SNB-75; Homo sapiens, five dose) of 1280 nM. It also gave a Growth percent (SNB-75; 10^−5 molar) of 23.66%, a TGI (SNB-75; five dose) of 2560 nM and a GI50 (NCI-H23; Homo sapiens, five dose) of 1890 nM. The Growth percent (NCI-H23; 10^−5 molar) was 54.26%, the TGI (NCI-H23; five dose) was 3680 nM and the Growth percent (HL-60(TB)) was −37.88%. For the same molecule, the GI50 (NCI-H460; Homo sapiens, five dose) was 1660 nM, the Growth percent (NCI-H460; 10^−5 molar) was −80.98% and the TGI (NCI-H460; five dose) was 3350 nM. It also gave a GI50 (MDA-MB-486; 60 cell, five dose) of 1060 nM, a CC50 (MDA-MB-486; 60 cell, five dose, read-out: LC50 (the source's name)) of 6200 nM and a Growth percent (MDA-MB-486; 10^−5 molar) of −24.00%. It also gave a TGI (MDA-MB-486; five dose) of 2560 nM, a Growth percent (ACHN; 10^−5 molar) of −96.96% and a TGI (ACHN; five dose) of 3220 nM. For the same molecule, the GI50 (ACHN; Homo sapiens, five dose) was 1670 nM, the GI50 (RPMI-8226; Homo sapiens, five dose) was 1840 nM and the Growth percent (RPMI-8226; 10^−5 molar) was 5.53%. The TGI (RPMI-8226; five dose) was 4210 nM, the Growth percent (COLO 205; 10^−5 molar) was −87.17% and the TGI (COLO 205; five dose) was 3370 nM. For the same molecule, the GI50 (COLO 205; Homo sapiens, five dose) was 1630 nM, the GI50 (UO-31; Homo sapiens, five dose) was 1360 nM and the CC50 (UO-31; [1]) was 6350 nM. The Growth percent (UO-31; 10^−5 molar) was 24.54%, the TGI (UO-31; five dose) was 2940 nM and the GI50 (MCF7; Homo sapiens, five dose) was 1050 nM. It also gave a Growth percent (MCF7; 10^−5 molar) of −72.49% and a TGI (MCF7; five dose) of 2600 nM.
